One data set relates to Alternaria brassicae. As to the kind of experiment: In vivo preventive test on Alternaria brassicae (leaf spot on radish). Conditions: for protection: dose of 100 and 500 ppm of active ingredient. The procedure:
Example A: In Vivo Preventive Test on Alternaria Brassicae (Leaf Spot on Radish) Solvent: 5% by volume of Dimethyl sulfoxide • 10% by volume of Acetone Emulsifier: 1 μL of Tween® 80 per mg of active ingredient The active ingredients are made soluble and homogenized in a mixture of Dimethyl sulfoxide/Acetone//Tween® 80 and then diluted in water to the desired concentration. The young plants of radish are treated by spraying the active ingredient prepared as described above. Control plants are treated only with an aqueous solution of Acetone/Dimethyl sulfoxide/Tween® 80. After 24 hours, the plants are contaminated by spraying the leaves with an aqueous suspension of Alternaria brassicae spores. The contaminated radish plants are incubated for 6 days at 20° C. and at 100% relative humidity. The test is evaluated 6 days after the inoculation. 0% means an efficacy which corresponds to that of the control plants while an efficacy of 100% means that no disease is observed.

A further data set relates to Puccinia recondita. In words: In vivo preventive test on Puccinia recondita (brown rust on wheat). The procedure: (§1) Example B: In Vivo Preventive Test on Puccinia Recondita (Brown Rust on Wheat) Solvent: 5% by volume of Dimethyl sulfoxide • 10% by volume of Acetone Emulsifier: 1 μL of Tween® 80 per mg of active ingredient The active ingredients are made soluble and homogenized in a mixture of Dimethyl sulfoxide/Acetone//Tween® 80 and then diluted in water to the desired concentration. The young plants of wheat are treated by spraying the active ingredient prepared as described above. Control plants are treated only with an aqueous solution of Acetone/Dimethyl sulfoxide/Tween® 80. After 24 hours, the plants are contaminated by spraying the leaves with an aqueous suspension of Puccinia recondita spores. The contaminated wheat plants are incubated for 24 hours at 20° C. and at 100% relative humidity and then for 10 days at 20° C. and at 70-80% relative humidity. The test is evaluated 11 days after the inoculation. 0% means an efficacy which corresponds to that of the control plants while an efficacy of 100% means that no disease is observed.

The test system of a further data set is Uromyces appendiculatus. In words: In vivo preventive test on Uromyces appendiculatus (bean rust). Conditions: for Efficacy: Table F2, dose 500 ppm; for protection: dose of 500 ppm of active ingredient. How it is done:
as §1, with “F:” for “B:”, “Uromyces Appendiculatus (Bean Rust)” for “Puccinia Recondita (Brown Rust on Wheat)”, “bean” for “wheat”, “Uromyces appendiculatus” for “Puccinia recondita”

Data set [1] in a line: log P by HPLC on reversed-phase column (C 18), EEC Directive 79/831 Annex V.A8. It is filed as physicochemical. Conditions: for logP: HPLC, C 18, 40° C., 0.1% aqueous formic acid and acetonitrile. The procedure: In table 1, the log P values were determined in accordance with EEC Directive 79/831 Annex V.A8 by HPLC (High Performance Liquid Chromatography) on a reversed-phase column (C 18), using the method described below: Temperature: 40° C.; Mobile phases: 0.1% aqueous formic acid and acetonitrile; linear gradient from 10% acetonitrile to 90% acetonitrile. Calibration was carried out using unbranched alkan-2-ones (comprising 3 to 16 carbon atoms) with known log P values (determination of the log P values by the retention times using linear interpolation between two successive alkanones). lambda-max-values were determined using UV-spectra from 200 nm to 400 nm and the peak values of the chromatographic signals.

[2] abbreviates: dose of 500 ppm of active ingredient.
[3] abbreviates: dose of 100 and 500 ppm of active ingredient.

The values below come from patent publication US10214510B2, “N-cycloalkyl-N-(biheterocyclylethylene)-(thio)carboxamide derivatives” (Bayer CropScience Aktiengesellschaft, priority 2015, dated 2019).

By logP is commonly meant the decadic logarithm of the partition coefficient of the neutral form, usually between octanol and water. Usually chromatographic logP stands for a lipophilicity value derived from retention on a column.

Regarding `CC(Cc1nc2ccc(C(F)(F)F)cn2c1-c1cccnc1)N(C(=O)c1c(C(F)F)nn(C)c1F)C1CC1` (stereo not drawn) [CMP1, N-cyclopropyl-3-(difluoromethyl)-5-fluoro-1-methyl-N-{1-[3-(pyridin-3-yl)-6-(trifluoromethyl)imidazo[1,2-a]pyridin-2-yl]propan-2-yl}-1H-pyrazole-4-carboxamide, reference compound], the Efficacy in the data set with Alternaria brassicae (Table A2, dose 100 ppm) came out at 0%; in the data set on Alternaria brassicae (Table A2, dose 500 ppm), 43%; in the data set with Puccinia recondita (Table B2, dose 500 ppm) it was 0%. Besides, the protection entry is “less than 50%” in the data set with Alternaria brassicae and “no protection” in the data set with Puccinia recondita (setting [2]).

As to `CC(Cc1ncc(C(F)(F)F)cc1-c1cccnc1)N(C(=O)c1c(C(F)F)nn(C)c1F)C1CC1` (stereo not drawn) [CMP2, N-cyclopropyl-3-(difluoromethyl)-5-fluoro-1-methyl-N-{1-[5-(trifluoromethyl)-3,3′-bipyridin-2-yl]propan-2-yl}-1H-pyrazole-4-carboxamide, reference compound], the Efficacy with Uromyces appendiculatus is 0%; in the data set on Puccinia recondita (Table B3, dose 100 ppm) it was 38%; in the data set with Puccinia recondita (Table B3, dose 500 ppm) it was 69%. Besides, the values for the protection entry with Uromyces appendiculatus and in the data set with Puccinia recondita (setting [3]) were “no protection” and “less than 70%”, respectively.

`CC(Cc1ncc(C(F)(F)F)cc1-c1cnc2ccccc2c1)N(C(=O)c1c(C(F)F)nn(C)c1F)C1CC1` (stereo not drawn) [I.01] showed a logP in data set [1] of 3.53.

`CC(Cc1ncc(C(F)(F)F)cc1-c1csc2ccccc12)N(C(=O)c1c(C(F)F)nn(C)c1F)C1CC1` (stereo not drawn) [I.02] came in with a logP in data set [1] of 4.72.

With `CC(Cc1ncc(C(F)(F)F)cc1-c1ccnc2cc(Cl)ccc12)N(C(=O)c1c(C(F)F)nn(C)c1F)C1CC1` (stereo not drawn) [I.03], the logP in data set [1] worked out at 4.20.

For the compound `CC(Cc1ncc(C(F)(F)F)cc1-c1coc2ccccc12)N(C(=O)c1c(C(F)F)nn(C)c1F)C1CC1` (stereo not drawn) [I.04], the logP in data set [1] is 4.46.

With `CC(Cc1ncc(C(F)(F)F)cc1-c1ccoc1)N(C(=O)c1c(C(F)F)nn(C)c1F)C1CC1` (stereo not drawn) [I.05], the Efficacy with Uromyces appendiculatus is listed as 100%; in the data set with Puccinia recondita (Table B3, dose 100 ppm), 93%; in the data set on Puccinia recondita (Table B3, dose 500 ppm) it was 100%. Besides, the protection result was “total protection” in the data set with Uromyces appendiculatus and “at least 90%” with Puccinia recondita (setting [3]). Further, in data set [1], the logP turned out to be 3.76.

Take `CC(Cc1ncc(C(F)(F)F)cc1-c1ccsc1)N(C(=O)c1c(C(F)F)nn(C)c1F)C1CC1` (stereo not drawn) [I.06, N-cyclopropyl-3-(difluoromethyl)-5-fluoro-1-methyl-N-{1-[3-(3-thienyl)-5-(trifluoro-methyl)-pyridin-2-yl]propan-2-yl}-1H-pyrazole-4-carboxamide]: in data set [1] (reversed-phase HPLC column (C 18), preparation example 1), the chromatographic logP is 4.03.

Take `Cc1cscc1-c1cc(C(F)(F)F)cnc1CC(C)N(C(=O)c1c(C(F)F)nn(C)c1F)C1CC1` (stereo not drawn) [I.07]: in data set [1], the logP is recorded as 4.37.

Consider `CC(Cc1ncc(C(F)(F)F)cc1-c1ccco1)N(C(=O)c1cn(C)nc1C(F)F)C1CC1` (stereo not drawn) [I.08], for which the logP in data set [1] turned out to be 3.55.

`CC(Cc1ncc(C(F)(F)F)cc1-c1ccsc1)N(C(=O)c1cn(C)nc1C(F)F)C1CC1` (stereo not drawn) [I.09] gave a logP in data set [1] of 3.67.

On to `Cc1cscc1-c1cc(C(F)(F)F)cnc1CC(C)N(C(=O)c1cn(C)nc1C(F)F)C1CC1` (stereo not drawn) [I.10], for which the logP in data set [1] is 3.99.

On to `CC(Cc1ncc(C(F)(F)F)cc1-c1coc2ccccc12)N(C(=O)c1cn(C)nc1C(F)F)C1CC1` (stereo not drawn) [I.11], for which the logP in data set [1] amounted to 4.11.

In turn, `CC(Cc1ncc(C(F)(F)F)cc1-c1ccnc2cc(Cl)ccc12)N(C(=O)c1cn(C)nc1C(F)F)C1CC1` (stereo not drawn) [I.12] displayed a logP in data set [1] of 3.78.

In turn, `CC(Cc1ncc(C(F)(F)F)cc1-c1cnc2ccccc2c1)N(C(=S)c1c(C(F)F)nn(C)c1F)C1CC1` (stereo not drawn) [I.13] returned a logP in data set [1] of 3.99.

In turn, `CC(Cc1ncc(C(F)(F)F)cc1-c1csc2ccccc12)N(C(=S)c1c(C(F)F)nn(C)c1F)C1CC1` (stereo not drawn) [I.14] showed a logP in data set [1] of 5.32.

In turn, `CC(Cc1nc2ccc(C(F)(F)F)cn2c1-c1ccsc1)N(C(=O)c1c(C(F)F)nn(C)c1F)C1CC1` (stereo not drawn) [I.15] showed a logP in data set [1] of 2.8.

`CC(Cc1nc2ccc(C(F)(F)F)cn2c1-c1ccoc1)N(C(=O)c1c(C(F)F)nn(C)c1F)C1CC1` (stereo not drawn) [I.16]: the Efficacy in the data set on Alternaria brassicae (Table A2, dose 100 ppm) is reported as 86%; in the data set on Alternaria brassicae (Table A2, dose 500 ppm), 86%; with Puccinia recondita (Table B2, dose 500 ppm) it was 78%. The protection entry in the data set with Alternaria brassicae is listed as “at least 80%”; in the data set on Puccinia recondita (setting [2]) it was “at least 70%”. Further, the logP in data set [1] is given as 2.63.

As to `CC(Cc1nc2ccc(C(F)(F)F)cn2c1-c1csc2ccccc12)N(C(=O)c1c(C(F)F)nn(C)c1F)C1CC1` (stereo not drawn) [I.17], the logP in data set [1] came to 3.57.

On to `CC(Cc1nc2ccc(C(F)(F)F)cn2c1-c1cccc2cccnc12)N(C(=O)c1c(C(F)F)nn(C)c1F)C1CC1` (stereo not drawn) [I.18], for which the logP in data set [1] is listed as 2.44.

In turn, `COc1ccnc(-c2c(CC(C)N(C(=O)c3c(C(F)F)nn(C)c3F)C3CC3)nc3ccc(C(F)(F)F)cn23)n1` (stereo not drawn) [I.19] came in with a logP in data set [1] of 2.44.

With `CC(Cc1nc2ccc(C(F)(F)F)cn2c1-c1ccsc1)N(C(=O)c1nn(C)nc1C(F)F)C1CC1` (stereo not drawn) [I.20], the logP in data set [1] is given as 3.08.

The compound `CC(Cc1ncc(C(F)(F)F)cc1CN1CCCCC1)N(C(=O)c1c(C(F)F)nn(C)c1F)C1CC1` (stereo not drawn) [I.21] showed a logP in data set [1] of 1.82.

Compound `CC(Cc1ncc(C(F)(F)F)cc1CN1CCCCC1)N(C(=O)c1cn(C)nc1C(F)F)C1CC1` (stereo not drawn) [I.22] gave a logP in data set [1] of 1.67.

`CC(Cc1nc2ccc(C(F)(F)F)cn2c1-c1ccsc1)N(C(=O)c1ccsc1Cl)C1CC1` (stereo not drawn) [I.23]: the logP in data set [1] is listed as 4.44.

`Cc1cc(C(=O)N(C(C)Cc2nc3ccc(C(F)(F)F)cn3c2-c2ccsc2)C2CC2)c(C)o1` (stereo not drawn) [I.24] had a logP in data set [1] of 3.35.

Regarding `Cc1nc(C(F)F)c(C(=O)N(C(C)Cc2nc3ccc(C(F)(F)F)cn3c2-c2ccsc2)C2CC2)s1` (stereo not drawn) [I.25], the logP in data set [1] was 3.39.
